Changes are numbered by the printed parent chain.
Tests used:
Format in all cases: cell-based
Conditions in all cases: 24 hours after administration
androgen receptor (AR) [1] = test: AR degradation in 22Rv1 cells (Western blot)
Protocol: (§1) LNCAP, VCAP and 22Rv1 cells were plated in 24-well plates at 1.5×10E5 cells/well in the RPMI growth medium containing 10% FBS and 1% Penicillin Streptomycin, and then incubated at 37° C. overnight. The following day, the test compound was administered to the cells by using 1000× compound stock solution prepared in DMSO at various concentrations. After administration of the compound, the cells were then incubated at 37° C. for 24 hours. Upon completion, the cells were washed with PBS and protein was collected in Laemmli sample buffer (1×; VWR International). Proteins in cell lysate were separated by SDS-PAGE and transferred to Odyssey nitrocellulose membranes (Licor) with iblot® dry blotting transfer system (ThermoFisher). Nonspecific binding was blocked by incubating membranes with Intercept Blocking Buffer (Licor) for 1 hour at room temperature with gentle shaking. The membranes were then incubated overnight at 4° C. with Primary antibodies rabbit anti-AR (1:1,000, Cell Signaling, 5153) and mouse anti-GAPDH (1:5,000, Santa Cruz Biotechnology, sc-47724) diluted in Intercept Blocking Buffer containing 0.1% Tween 20. After washing 3 times with TBS-T, the membranes were incubated with IRDye® […] goat anti-mouse IgG (1:20,000, Licor) or IRDye® […] goat anti-rabbit IgG (1:20,000, Licor) for 1 hour. After TBS-T washes, membranes were rinsed in TBS and scanned on Odyssey® CLx Imaging System (Licor). The bands were quantified using Image Studio™ Software (Licor).
(§2) Tables 5 and 6 summarize the androgen receptor (AR) degradative activity of exemplary compounds in LNCAP, VCAP and 22Rv1 cell lines 24 hours after administration. DC50: compound concentration needed for 50% target protein degradation.

androgen receptor (AR) [2] = target: T1, androgen receptor (AR) (Homo sapiens, UniProt P10275, T878A); test: AR degradation in LNCAP cells (Western blot)
T1 construct: endogenous in cells; host or cells: LNCAP
T1 sequence (P10275 1-920 T878A): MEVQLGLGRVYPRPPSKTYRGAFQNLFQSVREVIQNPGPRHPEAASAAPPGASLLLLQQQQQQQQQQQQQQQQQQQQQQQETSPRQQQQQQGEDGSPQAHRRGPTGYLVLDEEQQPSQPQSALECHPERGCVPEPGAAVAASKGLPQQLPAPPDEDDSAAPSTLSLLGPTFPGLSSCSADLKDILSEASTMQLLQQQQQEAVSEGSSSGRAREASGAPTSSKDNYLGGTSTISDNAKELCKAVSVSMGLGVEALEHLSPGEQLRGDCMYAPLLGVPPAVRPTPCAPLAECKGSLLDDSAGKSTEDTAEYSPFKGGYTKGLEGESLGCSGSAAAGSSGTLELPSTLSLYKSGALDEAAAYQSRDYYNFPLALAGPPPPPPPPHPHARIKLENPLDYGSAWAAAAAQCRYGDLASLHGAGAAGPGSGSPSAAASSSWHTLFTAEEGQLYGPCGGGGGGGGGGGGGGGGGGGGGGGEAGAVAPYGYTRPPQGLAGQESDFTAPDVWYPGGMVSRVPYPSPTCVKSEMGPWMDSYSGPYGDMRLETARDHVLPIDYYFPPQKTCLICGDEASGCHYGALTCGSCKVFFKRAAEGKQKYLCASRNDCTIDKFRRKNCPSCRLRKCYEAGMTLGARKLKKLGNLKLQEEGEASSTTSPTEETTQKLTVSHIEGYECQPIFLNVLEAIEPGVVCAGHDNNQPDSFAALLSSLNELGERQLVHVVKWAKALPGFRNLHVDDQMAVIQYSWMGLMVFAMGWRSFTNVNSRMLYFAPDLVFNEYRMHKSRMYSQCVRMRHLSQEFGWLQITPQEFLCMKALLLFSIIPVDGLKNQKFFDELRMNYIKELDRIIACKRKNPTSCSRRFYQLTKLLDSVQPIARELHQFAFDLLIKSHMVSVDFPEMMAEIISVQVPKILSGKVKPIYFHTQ
Procedure, shortened: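 Cells plated in RPMI with 10% FBS overnight, then treated with compound at various concentrations (from 1000× DMSO stocks) for 24 h at 37 °C. AR level measured by Western blot with GAPDH as loading control, infrared-fluorescent detection and band quantification; DC50 is concentration giving 50% AR degradation.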

androgen receptor (AR) [3] = target: T2, androgen receptor (AR) (Homo sapiens, UniProt P10275); test: AR degradation in VCAP cells (Western blot)
T2 construct: endogenous in cells; host or cells: VCAP
T2 sequence (P10275 1-920): T1 sequence (P10275 1-920 T878A) with A878T
Protocol: as §1, §2

Compound	DC50 (androgen receptor (AR) [1]) [nM]	DC50 (androgen receptor (AR) [2]) [nM]	DC50 (androgen receptor (AR) [3]) [nM]
C[C@@H]1CN(c2ccc(C#N)c(Cl)c2)[C@@H](C)CN1C(=O)Nc1cnc(N2CCC(CN3CCN(c4ccc5c(c4)C(=O)N(C4CCC(=O)NC4=O)C5=O)CC3)CC2)nc1 (stereo partly drawn) [Compound 1-20, (2R,5S)-4-(3-chloro-4-cyanophenyl)-N-(2-(4-((4-(2-(2,6-dioxopiperidin-3-yl)-1,3-dioxoisoindolin-5-yl)piperazin-1-yl)methyl)piperidin-1-yl)pyrimidin-5-yl)-2,5-dimethylpiperazine-1-carboxamide]	≤ 10	≤ 10	
C[C@@H]1CN(C(=O)Nc2cnc(N3CCC(CN4CCN(c5ccc6c(c5)C(=O)N(C5CCC(=O)NC5=O)C6=O)CC4)CC3)nc2)[C@@H](C)CN1c1ccc(C#N)c(Cl)c1 (stereo partly drawn) [Compound 1-22, (2S,5R)-4-(3-chloro-4-cyanophenyl)-N-(2-(4-((4-(2-(2,6-dioxopiperidin-3-yl)-1,3-dioxoisoindolin-5-yl)piperazin-1-yl)methyl)piperidin-1-yl)pyrimidin-5-yl)-2,5-dimethylpiperazine-1-carboxamide]		> 100	> 100
COc1cc(N2C[C@@H](C)N(C(=O)Nc3cnc(N4CCC(CN5CCN(c6ccc7c(c6)C(=O)N(C6CCC(=O)NC6=O)C7=O)CC5)CC4)nc3)C[C@@H]2C)ccc1C#N (stereo partly drawn) [Compound 1-27, (2R,5S)-4-(4-cyano-3-methoxyphenyl)-N-(2-(4-((4-(2-(2,6-dioxopiperidin-3-yl)-1,3-dioxoisoindolin-5-yl)piperazin-1-yl)methyl)piperidin-1-yl)pyrimidin-5-yl)-2,5-dimethylpiperazine-1-carboxamide]		≤ 10	≤ 10
COc1cc(N2C[C@@H](C)N(C(=O)Nc3ccc(N4CCC(CN5CCN(c6ccc7c(c6)C(=O)N(C6CCC(=O)NC6=O)C7=O)CC5)CC4)nc3)C[C@@H]2C)ccc1C#N (stereo partly drawn) [Compound 1-26, (2R,5S)-4-(4-cyano-3-methoxyphenyl)-N-(6-(4-((4-(2-(2,6-dioxopiperidin-3-yl)-1,3-dioxoisoindolin-5-yl)piperazin-1-yl)methyl)piperidin-1-yl)pyridin-3-yl)-2,5-dimethylpiperazine-1-carboxamide]		≤ 10	≤ 10
C[C@@H]1CN(c2ccc(C#N)c(Cl)c2)[C@@H](C)CN1C(=O)Nc1cnc(N2CCC(CN3CCN(c4ccc5c(c4)C(=O)N(C4CCC(=O)NC4=O)C5=O)CC3)CC2)nc1 (stereo partly drawn) [Compound 1-21, (2R,5S)-4-(3-chloro-4-cyanophenyl)-N-(2-(4-((4-(2-(2,6-dioxopiperidin-3-yl)-1,3-dioxoisoindolin-5-yl)piperazin-1-yl)methyl)piperidin-1-yl)pyrimidin-5-yl)-2,5-dimethylpiperazine-1-carboxamide]		≤ 10	≤ 10
C[C@@H]1CN(c2ccc(C#N)c(C(F)(F)F)c2)[C@@H](C)CN1C(=O)Nc1cnc(N2CCC(CN3CCN(c4ccc5c(c4)C(=O)N(C4CCC(=O)NC4=O)C5=O)CC3)CC2)nc1 (stereo partly drawn) [Compound 1-31, (2R,5S)-4-(4-cyano-3-(trifluoromethyl)phenyl)-N-(2-(4-((4-(2-(2,6-dioxopiperidin-3-yl)-1,3-dioxoisoindolin-5-yl)piperazin-1-yl)methyl)piperidin-1-yl)pyrimidin-5-yl)-2,5-dimethylpiperazine-1-carboxamide]		≤ 10	≤ 10
C[C@@H]1CN(c2ccc(C#N)c(Cl)c2)[C@@H](C)CN1C(=O)Nc1ccc(N2CCC(CN3CCN(c4ccc5c(c4)C(=O)N(C4CCC(=O)NC4=O)C5=O)CC3)CC2)nc1 (stereo partly drawn) [Compound 1-14, (2R,5S)-4-(3-chloro-4-cyanophenyl)-N-(6-(4-((4-(2-(2,6-dioxopiperidin-3-yl)-1,3-dioxoisoindolin-5-yl)piperazin-1-yl)methyl)piperidin-1-yl)pyridin-3-yl)-2,5-dimethylpiperazine-1-carboxamide]		≤ 10	≤ 10
(2R,5S)-4-(4-cyano-3-methoxyphenyl)-N-(4-(4-((4-(2-((S)-2,6-dioxopiperidin-3-yl)-1-oxoisoindolin-5-yl)piperazin-1-yl)methyl)piperidin-1-yl)-3-fluorophenyl)-2,5-dimethylpiperazine-1-carboxamide [Compound 1-53]	≤ 10	≤ 10	≤ 10
COc1cc(N2C[C@@H](C)N(C(=O)Nc3cc(F)c(N4CCC(CN5CCN(c6ccc7c(c6)C(=O)N(C6CCC(=O)NC6=O)C7=O)CC5)CC4)cc3F)C[C@@H]2C)ccc1C#N (stereo partly drawn) [Compound 1-29, (2R,5S)-4-(4-cyano-3-methoxyphenyl)-N-(4-(4-((4-(2-(2,6-dioxopiperidin-3-yl)-1,3-dioxoisoindolin-5-yl)piperazin-1-yl)methyl)piperidin-1-yl)-2,5-difluorophenyl)-2,5-dimethylpiperazine-1-carboxamide]		≤ 10	≤ 10
C[C@@H]1CN(c2ccc(C#N)c(C(F)(F)F)c2)[C@@H](C)CN1C(=O)Nc1ccc(N2CCC(CN3CCN(c4ccc5c(c4)CN([C@H]4CCC(=O)NC4=O)C5=O)CC3)CC2)nc1 [Compound 1-43, (2R,5S)-4-(4-cyano-3-(trifluoromethyl)phenyl)-N-(6-(4-((4-(2-((S)-2,6-dioxopiperidin-3-yl)-1-oxoisoindolin-5-yl)piperazin-1-yl)methyl)piperidin-1-yl)pyridin-3-yl)-2,5-dimethylpiperazine-1-carboxamide]	≤ 10	≤ 10	≤ 10

— US11420956B2, “Ureas having Androgen Receptor degradation activity and uses thereof” (ACCUTAR BIOTECHNOLOGY INC., priority 2019, dated 2022)
